Where two headings read alike, the source gives them in different places.
Experiments:
Hela cells = assay: MTT viability assay, Hela cells; format: cell-based, human; details: Homo sapiens, HeLa, 48 h incubation, mean, n = 3, read-out: IC50 against Hela cells
Experimental: (§1) The anticancer activities of the exemplary compounds listed in Example 1 were tested against human cervix Hela cells, mammary breast cancer MDA-MB-231 cells, human hepatocellular HepG2 cells, human colorectal HCT116 cells, mammary ductal T47D cells, non-cancerous NIH3T3 cells, dog's kidney MDCK cells, and mouse brain bEnd.3 cells, respectively.

NIH3T3 cells = assay: MTT viability assay, non-cancerous NIH3T3 cells; format: cell-based; details: Mus musculus, NIH3T3
Experimental: as §1

HCT116 cells = assay: MTT viability assay, HCT116 cells; format: cell-based, human; details: for IC50: Homo sapiens, HCT-116; for fold more cytotoxic to HCT116 cells than OZ277: comparator OZ277; for fold more cytotoxic than OZ439 on HCT116: comparator OZ439 (literature)
Experimental: as §1

MDCK cells = assay: MTT viability assay, MDCK cells; format: cell-based, dog; details: Canis lupus familiaris, MDCK, 48 h incubation, mean, n = 3, read-out: IC50 against MDCK cells
Experimental: as §1

Huh7 = assay: Viability IC50, Huh7 cells; format: cell-based; details: Homo sapiens, Huh-7; Table 12a
PLC = assay: Viability IC50, PLC cells; format: cell-based; details: Table 12a
U2OS = assay: Viability IC50, U2OS cells; format: cell-based; details: Homo sapiens, Table 12a
HEYA8 CSCs [1] = assay: CellTiter-Glo viability, HeyA8 cancer stem cells (spheres); format: cell-based; details: for IC50: HEY A8, cancer stem cell spheres, CellTiter-Glo, 48 hrs, n = 3, read-out: IC50 HeyA8sp (HEYA8 CSCs); for cell viability of ovarian cancer cells and cancer stem cells (FIG. 3C, words): both ovarian cancer cells and CSCs
[2] = tested on: HEYA8 CSC xenograft tumors; assay: Mouse xenograft ovarian tumors (HEYA8 CSC); format: in vivo; details: for tolerability of regimens in tested animals / abnormal behavior or weight loss during treatment period: HEYA8 CSC xenograft mice; for abnormal behavior or weight loss during treatment period: entire treatment period
Experimental: FIG. 7A is a graph showing the tumor volume of xenograft tumors versus time after s.c. injection of DMSO, PTX, compound 37b, or compound 48. Nude mice were injected s.c. with HEYA8 CSC cells (10^6) and randomly allocated to one of the six treatment groups (n=4): (i) DMSO, (ii) Paclitaxel (PTX), 5 mg/kg, (iii) compound 37b, 5 mg/kg, (iv) compound 37b, 10 mg/kg, (v) compound 48, 5 mg/kg, or (vi) compound 48, 10 mg/kg. When control animals (DMSO) began to appear tumor ulceration (25 days), all animals in the experiment were sacrificed and photographed. FIG. 7B are photographs of the tumor from sacrificed animals of different treatment groups after 25 days. FIG. 7C is a graph showing the tumor weight of xenograft tumors versus time after s.c. injection of DMSO, PTX, compound 37b, or compound 48. Data are shown as mean±SEM. * P≤0.05 versus DMSO group.
The cytotoxicity of 1,2,4,5-tetraoxanes 48 and 37b on cancer stem cell (CSC) model of HEY A8 CSCs and mouse xenograft ovarian tumors (FIG. 2) was examined. Nude mice were injected s.c. with HEYA8 CSC cells […] and randomly allocated to one of the six treatment groups (n=4): (i) DMSO, (ii) Paclitaxel (PTX), 5 mg/kg, (iii) compound 37b, 5 mg/kg, (iv) compound 37b, 10 mg/kg, (v) compound 48, 5 mg/kg, and (vi) compound 48, 10 mg/kg. When control animals (DMSO) began to appear tumor ulceration (25 days), all animals in the experiment were sacrificed and photographed. It is known that ovarian CSCs have resistance to Taxol, so Taxol was used as negative control.

[3] = tested on: cytosolic hydroxyl radical in MDA-MB-231 cells; assay: HKOH-1r hydroxyl radical detection in MDA-MB-231 cells; format: cell-based; details: about 5.5 h after addition
Experimental: FIG. 10 is a bar graph showing the relative mean fluorescence intensities of cells with HKOH-1r measured from the confocal images of MDA-MB-231 cells after treatment with compounds 48 and 37b, respectively. Scale bars represent 50 μm. Data are mean±s.e.m., n=20 cells for HKOH-1. Statistical significance was determined as ***P≤0.01 by Student's t test.
Reactive oxygen species is associated with the event of ferroptotic cell death. Oxidative stress induced by 48 and 37b can be indicated by the fluorogenic probe, HKOH-1r, that emits at 520 nm upon oxidation by cytosolic hydroxyl radical. By using HKOH-1r, it is possible to specify the type of ROS that tetraoxanes can produce in MDA-MB-231 cells.
Confocal images of MDA-MB-231 cells after tetraoxane treatment were captured and the relative mean fluorescence intensities of cells with HKOH-1r were quantified (FIG. 10). […] This phenomenon is consistent with one of the features of ferroptosis.

[4] = tested on: lipid ROS in MDA-MB-231 cells; assay: C11-BODIPY lipid ROS detection in MDA-MB-231 cells; format: cell-based; details: 48 5 μM, 37b 1 μM, RSL3 0.5 μM; 6 h incubation
Experimental: FIG. 11 is a bar graph showing the detection of lipid ROS with compound 48 (5 μM), compound 37b (1 μM), or RSL3 (0.5 μM) by BODIPY 581/591 C11 after 6 h incubation in MDA-MB-231 cells. **P≤0.01 versus DMSO group. Data are plotted as the mean±SD, n=3 biologically independent samples. All P values were determined using two-tailed Student's t-test.
Since lipid peroxidation is the evidence about ferroptosis, C11-BODIPY probe is used to validate the lipid ROS generated by tetraoxanes. It is a ratiometric membrane-targeted probe which changes the emission from 590 nm to 510 nm upon the detection of lipid ROS. Here, MDA-MB-231 cells were treated with 48, 37b and RSL3, respectively. The lipid ROS levels were quantified by flow cytometry. Untreated group gave weak signal in FL1 channel (FIG. 11).

HEYA8 CSCs [5] = assay: Protective effect of Q-VD-OPh, DFX and Fer-1 on HEYA8 CSCs; format: cell-based; details: for cell death pathway: HEYA8 cancer cells and CSCs
Experimental: FIGS. 5A-5B are bar graphs showing the protective effect of Q-VD-OPh, deferasirox (DFX) and ferrostatin-1 (Fer-1) on HeyA8 cancer stem cells (FIG. 5A) and HeyA8 spheres (FIG. 5B) after treatment with compound 48 and compound 37b, respectively, for 24 h. *P≤0.05, **P≤0.01 versus non-pretreated group. Data are plotted as the mean±SD, n=3 biologically independent samples. N.S., no statistically significant change. All P values were determined using two-tailed Student's t-test.

[6] = MTT, 48 h incubation, mean, n = 3, read-out: IC50 against NIH3T3 cells
[7] = Table 12b, read-out: IC50 NIH3T3
[8] = MTT, 48 h incubation, mean, n = 3, read-out: IC50 against HCT116 cells
[9] = Table 12b, read-out: IC50 HCT116

| Structure (SMILES) | IC50 (Hela cells) | IC50 (NIH3T3 cells; [6]) | IC50 (NIH3T3 cells; [7]) | IC50 (HCT116 cells; [8]) | IC50 (HCT116 cells; [9]) | fold more cytotoxic to HCT116 cells than OZ277 (HCT116 cells) | fold more cytotoxic than OZ439 on HCT116 (HCT116 cells) | IC50 (MDCK cells) | IC50 (Huh7) | IC50 (PLC) | IC50 (U2OS) | IC50 (HEYA8 CSCs [1]) | cell viability of ovarian cancer cells and cancer stem cells (FIG. 3C, words) (HEYA8 CSCs [1]) | tolerability of regimens in tested animals [2] | abnormal behavior or weight loss during treatment period [2] | hydroxyl radical (HKOH-1r fluorescence) [3] | lipid ROS (BODIPY 581/591 C11, FL1, flow cytometry) [4] | cell death pathway (HEYA8 CSCs [5]) | other results |
| --- | --- | --- | --- | --- | --- | --- | --- | --- | --- | --- | --- | --- | --- | --- | --- | --- | --- | --- | --- |
| CC(C)(C)C1CCC2(CC1)OOC1(CCC(OC(=O)NCCC[P+](c3ccccc3)(c3ccccc3)c3ccccc3)CC1)OO2.[Br-] (stereo not drawn) [Compound 37b, (3-((((12-(tert-butyl)-7,8,15,16-tetraoxadispiro[5.2.59.26]hexadecan-3-yl)oxy)carbonyl)amino)propyl)triphenylphosphonium bromide] | 1.6 µM | 4.6 µM | 4.6 ± 1.9 µM | 0.6 ± 0.3 µM | 0.6 ± 0.3 µM | 113 fold | 106 fold | 9.5 µM | 3.8 ± 0.9 µM | 2.7 ± 0.02 µM | 3.4 ± 0.2 µM | 1.1 ± 0.4 µM | could diminish the cell viability | well-tolerated | no abnormal behavior or weight loss | significant amount of hydroxyl radical was observed | lipid ROS was generated | induced ferroptosis instead of apoptosis | selectivity index (IC50 of NIH3T3 divided by IC50 on HCT116) (HCT116 cells; Table 12b, value in bracket): (>7.6); tumor growth compared with vehicle control ([2]; 5 mg/kg and 10 mg/kg, HEYA8 CSC xenograft, 25 days): effective in inhibiting tumor growth |
| CC(C)(C)C1CCC2(CC1)OOC1(CCC(OC(=O)NCCC[N+](C)(Cc3ccccc3)Cc3ccccc3)CC1)OO2.[I-] (stereo not drawn) [Compound 48, N,N-dibenzyl-3-((((12-(tert-butyl)-7,8,15,16-tetraoxadispiro[5.2.59.26]hexadecan-3-yl)oxy)carbonyl)amino)-N-methylpropan-1-aminium iodide] | 6.3 µM | 29 ± 5.7 µM | 29 ± 5.7 µM | 2.2 ± 0.3 µM | 2.2 ± 0.3 µM | 44 fold | 29 fold | 28.2 µM | 5.2 ± 0.4 µM | 3.9 ± 0.6 µM | 4.4 ± 0.6 µM | 1.2 ± 0.5 µM | could diminish the cell viability | well-tolerated | no abnormal behavior or weight loss | significant amount of hydroxyl radical was observed | lipid ROS was generated | ferroptosis | IC50 (NIH3T3 cells; Table 13, experimental data, MTT, 48 hrs, n = 3, read-out: IC50 NIH3T3): 29 ± 5.7 µM; IC50 (HCT116 cells; Table 13, experimental data, MTT, 48 hrs, n = 3, read-out: IC50 HCT116): 2.2 ± 0.3 µM; selectivity index (IC50 of NIH3T3 divided by IC50 on HCT116) (HCT116 cells; Table 13, value in bracket): (>13); fold more cytotoxic to HEYA8 CSCs than non-cancerous cells (HEYA8 CSCs [1]): at least 24 fold; tumor size ([2]; 10 mg/kg, HEYA8 CSC xenograft, 25 days): reduced the tumor size; effect of Fer-1 co-treatment on HEYA8 CSCs (HEYA8 CSCs [5]; 24 h treatment): majority of the CSCs remained unaffected; effect of deferasirox (DFX) on cell death in HEYA8 CSCs (HEYA8 CSCs [5]; 24 h treatment): rescue part of the cell death |

— patent publication US20240101584A1, “TARGETED DELIVERY OF 1,2,4,5 TETRAOXANE COMPOUNDS AND THEIR USES” (Westlake University, priority 2021, published 2024)
